Reference: ChEMBL document CHEMBL1201862, “PubChem BioAssay data set” (2004)
Each block holds one compound with its values, some of them ahead of it. Calls of active or inactive are those of the source.

Assays:
Fatty acid synthase [1] = target: T1, Fatty acid synthase (Homo sapiens, UniProt P49327); assay: inhibition of human FAS-TE enzyme activity – biochemical, endpoint fluorescence intensity, uHTS hits, dose response (AID 624327); type: functional;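 also: fluorescence from hydrolysis of an O-methyl fluorescein acyl ester substrate by the enzyme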
[2] = viability loss in HeLa cells – cytotoxicity control for MgcRacGAP inhibitor project, dose response (AID 624300); type: functional
[3] = target: T2, Rac GTPase-activating protein 1 (Homo sapiens, UniProt Q9H0H5); assay: blockers of MgcRacGAP-driven Rac1 GTP hydrolysis – biochemical, ADP Hunter fluorescence, primary and confirmatory, confirmation (AID 624330); type: functional
T2 sequence (Q9H0H5 whole entry): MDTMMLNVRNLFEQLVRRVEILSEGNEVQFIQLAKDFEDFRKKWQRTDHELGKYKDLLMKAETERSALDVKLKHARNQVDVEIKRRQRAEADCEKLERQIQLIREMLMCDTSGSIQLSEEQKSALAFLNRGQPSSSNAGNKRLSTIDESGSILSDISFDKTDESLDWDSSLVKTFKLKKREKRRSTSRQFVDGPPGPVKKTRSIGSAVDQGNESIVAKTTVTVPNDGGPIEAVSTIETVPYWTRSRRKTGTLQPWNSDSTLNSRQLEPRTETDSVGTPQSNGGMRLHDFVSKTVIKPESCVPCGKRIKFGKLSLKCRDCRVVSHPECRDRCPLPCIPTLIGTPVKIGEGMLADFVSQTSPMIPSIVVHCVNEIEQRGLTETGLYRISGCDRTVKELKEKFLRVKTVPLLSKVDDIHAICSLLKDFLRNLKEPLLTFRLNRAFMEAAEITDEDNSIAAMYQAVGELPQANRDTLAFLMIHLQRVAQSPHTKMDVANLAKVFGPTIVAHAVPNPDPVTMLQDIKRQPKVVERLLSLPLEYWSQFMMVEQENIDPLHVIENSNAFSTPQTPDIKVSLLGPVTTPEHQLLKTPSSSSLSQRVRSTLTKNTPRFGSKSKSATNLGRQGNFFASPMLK

Fatty acid synthase [4] = target: T1, Fatty acid synthase; assay: inhibition of human FAS-TE enzyme activity – biochemical, kinetic fluorescence intensity, dose response (AID 624326); type: functional;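 also: rate of fluorescence rise from hydrolysis of a fluorogenic O-methyl fluorescein ester substrate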
[5] = Luminescence-based cell-based high throughput dose response assay to identify activators of the DAF-12 from the parasite S. stercoralis (ssDAF-12).; type: functional
[6] = target: T3, Oxysterols receptor LXR-beta (Homo sapiens, UniProt P55055); assay: LXR agonists, Gal4 luciferase reporter, dose response, counter-screen for ssDAF-12 agonist project, cell-based, luminescence, HEK293, S. stercoralis campaign (AID 720737); type: functional; details: read-out: IC50 (the source's name)
T3 sequence (P55055 whole entry): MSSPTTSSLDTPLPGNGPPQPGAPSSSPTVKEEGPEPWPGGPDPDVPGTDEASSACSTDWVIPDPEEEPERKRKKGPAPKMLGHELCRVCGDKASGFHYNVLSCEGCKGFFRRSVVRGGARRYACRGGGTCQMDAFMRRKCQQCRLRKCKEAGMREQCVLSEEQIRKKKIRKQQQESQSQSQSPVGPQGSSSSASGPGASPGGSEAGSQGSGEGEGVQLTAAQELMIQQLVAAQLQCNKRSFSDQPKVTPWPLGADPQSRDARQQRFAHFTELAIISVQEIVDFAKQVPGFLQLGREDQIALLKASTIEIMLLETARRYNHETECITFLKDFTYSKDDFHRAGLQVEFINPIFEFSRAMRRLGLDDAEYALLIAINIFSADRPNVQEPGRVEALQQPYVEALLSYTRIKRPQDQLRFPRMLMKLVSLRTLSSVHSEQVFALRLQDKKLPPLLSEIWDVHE

[7] = rise of 2N DNA cells, HeLa – IC50, dose response (AID 1117349); type: functional, cell-based
[8] = rise of 4N DNA cells, HeLa – IC50, dose response (AID 1117351); type: functional, cell-based
Protein Tat = Protein Tat (Human immunodeficiency virus type 1 group M subtype B (isolate HXB2)(HIV-1), UniProt P04608); type: functional;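 also: tat binding to TAR RNA read out by fluorescence polarization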
[9] = IC50 of insulin release inhibition, rat insulinoma INS-1E line, 5 mM glucose, cell-based (AID 1117331); type: functional
cells = type: functional, cell-based; details: INS-1E
[10] = target: G-protein coupled receptor 183 (Homo sapiens, UniProt P32249); assay: SAR confirmation of small molecule antagonists of the EBI2 receptor via a luminescent beta-arrestin assa.; type: functional
[11] = CellTiter-Glo luminescence survival assay, SW480 colon tumor line, concentration-response curve, half-maximal inhibitory concentration (AID 1117338); type: functional
[12] = RKO cell viability reduction, dose response, CellTiter-Glo luminescence (AID 1117322); type: functional
[13] = cytotoxicity toward HCT116 cells – cell-based, CellTiter-Glo luminescence, IC50, dose response (AID 1117332); type: functional; details: HCT-116
[14] = SNU-C1 cell viability reduction, dose response, CellTiter-Glo luminescence (AID 1117323); type: functional, cell-based
[15] = cytotoxicity toward Colo320 cells – cell-based, CellTiter-Glo luminescence, IC50, dose response (AID 1117334); type: functional; details: COLO 320
[16] = cytotoxicity toward HT-29 cells – cell-based, CellTiter-Glo luminescence, IC50, dose response (AID 1117330); type: functional
[17] = Reduced DLD-1 viability, concentration-response, CellTiter-Glo luminescence (AID 1117352); type: functional
[18] = HCT116 cell viability decrease, GSK3B pretreatment – CellTiter-Glo, IC50, dose response (AID 1117339); type: functional; details: HCT-116
[19] = target: Neuropeptide Y receptor type 2 (Homo sapiens, UniProt P49146); assay: IC50 for human NPY-Y2 blockade – cell-based, counter-screen for NPY-Y1 antagonist project, dose response (AID 1278); type: functional
Sequence of Neuropeptide Y receptor type 2 (P49146 whole entry): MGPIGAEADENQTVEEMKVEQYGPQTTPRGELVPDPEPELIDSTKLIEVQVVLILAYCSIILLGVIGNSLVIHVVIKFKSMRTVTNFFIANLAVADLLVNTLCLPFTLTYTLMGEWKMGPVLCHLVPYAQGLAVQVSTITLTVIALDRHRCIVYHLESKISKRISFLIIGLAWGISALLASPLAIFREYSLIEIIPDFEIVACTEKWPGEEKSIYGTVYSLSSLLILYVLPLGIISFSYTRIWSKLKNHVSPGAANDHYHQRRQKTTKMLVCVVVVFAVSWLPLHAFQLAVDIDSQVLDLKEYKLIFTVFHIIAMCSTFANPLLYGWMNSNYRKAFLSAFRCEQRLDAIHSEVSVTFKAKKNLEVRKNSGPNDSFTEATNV

T1 sequence (P49327 whole entry): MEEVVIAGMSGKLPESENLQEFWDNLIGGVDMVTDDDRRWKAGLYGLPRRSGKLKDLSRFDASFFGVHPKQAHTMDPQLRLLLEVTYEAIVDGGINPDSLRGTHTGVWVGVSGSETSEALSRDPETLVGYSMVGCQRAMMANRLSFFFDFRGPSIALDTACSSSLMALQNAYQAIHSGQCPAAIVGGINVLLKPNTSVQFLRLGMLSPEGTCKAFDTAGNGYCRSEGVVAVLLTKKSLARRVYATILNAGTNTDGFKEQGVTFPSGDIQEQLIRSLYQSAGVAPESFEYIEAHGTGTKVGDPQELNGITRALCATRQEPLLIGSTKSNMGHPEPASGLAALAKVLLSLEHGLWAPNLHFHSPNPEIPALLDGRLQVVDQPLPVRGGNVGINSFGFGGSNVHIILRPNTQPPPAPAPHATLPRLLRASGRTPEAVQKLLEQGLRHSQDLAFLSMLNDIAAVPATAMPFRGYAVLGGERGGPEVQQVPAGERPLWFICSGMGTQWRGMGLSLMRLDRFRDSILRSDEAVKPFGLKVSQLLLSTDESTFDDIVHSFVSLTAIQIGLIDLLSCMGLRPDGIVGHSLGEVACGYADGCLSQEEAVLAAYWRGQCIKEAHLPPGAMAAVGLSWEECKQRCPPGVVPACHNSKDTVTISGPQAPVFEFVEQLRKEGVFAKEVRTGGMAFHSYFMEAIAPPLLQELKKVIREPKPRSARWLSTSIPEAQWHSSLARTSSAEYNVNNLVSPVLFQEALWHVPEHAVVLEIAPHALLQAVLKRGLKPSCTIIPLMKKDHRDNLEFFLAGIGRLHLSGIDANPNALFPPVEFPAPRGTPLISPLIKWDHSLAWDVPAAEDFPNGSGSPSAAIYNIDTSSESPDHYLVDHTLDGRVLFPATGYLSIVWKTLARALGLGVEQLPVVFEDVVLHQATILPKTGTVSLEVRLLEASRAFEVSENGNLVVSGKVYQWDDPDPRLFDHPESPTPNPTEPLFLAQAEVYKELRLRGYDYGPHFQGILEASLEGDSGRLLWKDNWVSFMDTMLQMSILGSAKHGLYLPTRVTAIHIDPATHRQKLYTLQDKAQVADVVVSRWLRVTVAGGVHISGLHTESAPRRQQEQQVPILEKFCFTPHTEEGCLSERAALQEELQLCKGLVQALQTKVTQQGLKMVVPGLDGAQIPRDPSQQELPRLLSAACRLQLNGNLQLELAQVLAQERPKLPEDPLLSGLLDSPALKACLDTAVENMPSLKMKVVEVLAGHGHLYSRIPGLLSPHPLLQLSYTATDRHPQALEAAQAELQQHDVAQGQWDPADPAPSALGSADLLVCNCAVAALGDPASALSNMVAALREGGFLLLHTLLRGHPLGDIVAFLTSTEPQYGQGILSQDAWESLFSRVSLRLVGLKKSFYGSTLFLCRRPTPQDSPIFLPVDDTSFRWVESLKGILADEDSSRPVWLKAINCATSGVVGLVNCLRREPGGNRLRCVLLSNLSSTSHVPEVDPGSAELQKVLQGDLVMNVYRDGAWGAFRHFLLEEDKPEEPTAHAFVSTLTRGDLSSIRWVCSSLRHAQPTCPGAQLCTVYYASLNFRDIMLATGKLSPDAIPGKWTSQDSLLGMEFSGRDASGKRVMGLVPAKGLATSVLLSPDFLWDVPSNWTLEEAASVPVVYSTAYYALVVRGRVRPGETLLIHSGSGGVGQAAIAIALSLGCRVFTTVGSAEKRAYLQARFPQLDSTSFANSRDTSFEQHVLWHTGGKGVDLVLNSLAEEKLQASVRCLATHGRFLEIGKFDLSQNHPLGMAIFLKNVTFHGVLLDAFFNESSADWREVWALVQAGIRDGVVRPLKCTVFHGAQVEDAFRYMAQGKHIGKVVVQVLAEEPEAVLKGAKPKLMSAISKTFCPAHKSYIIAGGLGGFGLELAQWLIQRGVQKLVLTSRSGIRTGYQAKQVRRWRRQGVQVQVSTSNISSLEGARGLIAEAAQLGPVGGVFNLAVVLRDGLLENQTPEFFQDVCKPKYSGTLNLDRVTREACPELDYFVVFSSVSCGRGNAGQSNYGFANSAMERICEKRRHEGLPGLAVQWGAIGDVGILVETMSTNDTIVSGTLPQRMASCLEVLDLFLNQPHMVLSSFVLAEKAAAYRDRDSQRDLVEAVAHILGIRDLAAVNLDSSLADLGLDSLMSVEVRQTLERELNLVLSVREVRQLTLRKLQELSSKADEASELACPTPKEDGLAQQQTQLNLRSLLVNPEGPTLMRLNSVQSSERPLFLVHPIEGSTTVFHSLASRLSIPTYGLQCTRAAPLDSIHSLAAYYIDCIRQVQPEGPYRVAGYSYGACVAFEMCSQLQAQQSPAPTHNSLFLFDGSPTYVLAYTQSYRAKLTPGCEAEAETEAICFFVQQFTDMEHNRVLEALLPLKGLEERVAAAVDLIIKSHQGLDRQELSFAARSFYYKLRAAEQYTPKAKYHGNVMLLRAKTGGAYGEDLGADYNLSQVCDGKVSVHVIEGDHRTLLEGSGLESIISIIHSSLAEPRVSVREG
Sequence of G-protein coupled receptor 183 (P32249 whole entry): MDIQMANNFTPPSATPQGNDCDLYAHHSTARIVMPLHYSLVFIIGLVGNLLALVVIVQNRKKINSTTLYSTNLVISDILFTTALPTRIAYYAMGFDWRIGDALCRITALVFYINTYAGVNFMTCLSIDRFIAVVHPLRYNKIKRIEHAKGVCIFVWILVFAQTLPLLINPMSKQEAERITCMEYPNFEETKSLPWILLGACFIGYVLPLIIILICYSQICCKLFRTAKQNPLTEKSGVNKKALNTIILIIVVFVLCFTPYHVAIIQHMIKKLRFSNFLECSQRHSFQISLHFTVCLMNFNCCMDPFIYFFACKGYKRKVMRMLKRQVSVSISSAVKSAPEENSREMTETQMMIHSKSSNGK
Sequence of Protein Tat (P04608 whole entry): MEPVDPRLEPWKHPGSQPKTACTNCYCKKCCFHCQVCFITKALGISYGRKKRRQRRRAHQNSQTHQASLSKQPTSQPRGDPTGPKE

Structure (SMILES): CCC(C)n1c(=S)[nH]c2c(sc3ccc([N+](=O)[O-])cc32)c1=O (stereo unspecified)
IC50 (Fatty acid synthase [1]): 17.1 µM (active)
CC50 [2]: 100 µM (active)
IC50 [3]: 73.3 µM (active)
IC50 (Fatty acid synthase [4]): 15.5 µM (active)
IC50 [5]: > 67.5 µM (inactive)
EC50 [6]: > 67.5 µM (inactive)

Structure (SMILES): C=C(C)[C@H]1Cc2c(ccc3c2O[C@@H]2COc4cc(OC)c(OC)cc4[C@@H]2C3=O)O1 [ROTENONE]
IC50 [7]: 0.311 µM (active)
IC50 [8]: 0.311 µM (active)

IC50 (Protein Tat): > 100 µM (active)
Structure (SMILES): CCc1ccccc1N(CC(=O)NCCSCc1ccco1)S(C)(=O)=O

Structure (SMILES): c1cc(CN2CCCCC2)cc(OCCCNc2nc3ccccc3s2)c1
IC50 [9]: > 11.1 µM (inactive)
IC50 (cells): > 33.3 µM (inactive)

IC50 [10]: 0.0121 µM (active)
Structure (SMILES): COc1ccc(S(=O)(=O)N2CCN(C(=O)/C=C/c3ccc(F)cc3)CC2)cc1

Structure (SMILES): ClC1=C(Cl)C2(Cl)C(CBr)CC1(Cl)C2(Cl)Cl (stereo unspecified) [BROMOCICLEN]
IC50 [11]: > 20 µM (inactive)
IC50 [12]: > 20 µM (inactive)
IC50 [13]: > 20 µM (inactive)
IC50 [14]: > 20 µM (inactive)
IC50 [15]: > 20 µM (inactive)
IC50 [16]: > 20 µM (inactive)
IC50 [17]: > 20 µM (inactive)
IC50 [18]: > 20 µM (inactive)

IC50 [19]: 24.4 µM (not active)
Structure (SMILES): CC(C)CC(c1nnnn1C1CCCC1)N1CCN(c2ccccc2F)CC1 (stereo unspecified)
